Results from article PMC11878344 (Angewandte Chemie (International Ed. in English), 2025).

Legend:
HT-29 cells = experiment: Confocal live cell imaging of HT-29 cells; format: cell-based; conditions: inhibitor 10 μM; probe 9 0.15 μM
From the text: The enzymatic activity of MAGL plays a critical role in cancer lipid metabolism and is overexpressed in several particularly aggressive cancer cell lines.[56] Therefore, the expression levels of MAGL are considered a prognostic biomarker for the degree of cancer tumor differentiation and progression.[57] Here the colon cancer HT‐29 cell line is one of the prototypical systems regarding the impact of MAGL in proliferating and invasive cancer.[45, 58, 59] We studied the ability of probes 8–12 to detect MAGL by confocal imaging microscopy (Figure 6 A). Consistent staining of MAGL could be achieved with all optimized probes 8–12 carrying NBD, BODIPY, and SiR, respectively, providing a bright and stable fluorescent signal in live cancer cells. […]
For ABPP experiments, cell lysates containing equal amounts of protein were incubated with the appropriate concentration of activity-based probe for 30 min at room temperature. […] Samples were then separated by SDS-PAGE and bands were detected ChemiDoc Imager (Bio-Rad Laboratories). […] Gels were imaged and protein bands were quantified using Image Lab software (Bio-Rad Laboratories).
Fluorescence confocal microscopy. […]
Confocal live cell image acquisition. […] The probe fluorescence was monitored by kinetic measurements of 10 min with a break for probe administration. The fluorescence of one image per sample was captured at each time point. […]

MAGL = system: MAGL; set-up: method as in PMID 35089028, PMID 34764251, PMID 34328319, PMID 29498843; conditions: known MAGL ligands of Figure 1; cited from earlier work
[1] = system: primary hippocampal neurons; experiment: Confocal imaging of live primary hippocampal neuron cultures; format: cell-based, mouse; conditions: inhibitor 10 μM, 2 h before labeling; p <0.01
Experimental: MAGL plays a vital role in neuronal inflammation[24, 66, 67] and the integrity of the blood–brain barrier.[68, 69] Therefore, we investigated the imaging capability of the probes in live dissociated primary hippocampal neuron cultures (Figure 6 C) as a prime model system in CNS research, particularly in the context of its role in shaping neurotransmitter release and synaptic plasticity properties.[70] Confocal microscopic imaging of the live cultures, at day 14–21 in vitro, was performed on cells treated with probe 9 (1 μM) and the particularly bright silicon‐rhodamine (SiR) probes 10 and 12 (0.5 μM) at 37 °C for 15 min, all of them producing a strong fluorescent signal. […] We observed an accumulation of the fluorescent signal in neuronal varicosities with a distribution that is reminiscent of that of synapses, indicating the localization of MAGL.
Hippocampal Neurons Staining
Preparation of primary neuron cultures. For neuron culture, glass coverslips (19 mm, #1.5
Epredia Deckgläser, CB00190RAC20MNZ0) were coated with PLL (Sigma-Aldrich, P4707; 1:12
dilution) in phosphate-buffered saline (PBS) for 2h at 37 °C. Hippocampal neurons were then […]
microscope for a maximum of 30 min. Images were then analyzed using FIJI. […]
analysis. The protein was analyzed using a Waters H-class instrument equipped with a quaternary […]

O=C(OC(CO)C(F)(F)F)N1CC2C(C1)C2c1ccn(-c2ccc(F)cc2)n1 (stereo not drawn) [PF-06795071]
Effect of pre-incubation on probe 9 fluorescent signal (HT-29 cells): completely suppressed the fluorescent signal
IC50 (MAGL): 3 nM
Effect of pre-incubation on MAGL probe labeling [1]: strong decrease in mean fluorescent intensity
